ChEMBL document CHEMBL1201862, “PubChem BioAssay data set” (2004)
Blank lines part the entries; values can stand above or below the molecule they belong to. Activity calls are given as the source filed them.

Experiments:
Type in all cases: functional
Insulin-degrading enzyme = target: T1, Insulin-degrading enzyme (Homo sapiens, UniProt P14735); assay: Dose Response: Fluorescence polarization-based cell-based high throughput dose response assay for inhibitors of insulin-degrading enzyme (IDE). [Related pubchem assays: 434962 (Primary screen (IDE inhibitors in singlicate)), 449730 (Counterscreen (Cytotoxicity in triplicate)), 435028 (Confirmation (IDE inhibitors in triplicate)), 434984 (Summary …
T1 sequence (P14735 whole entry): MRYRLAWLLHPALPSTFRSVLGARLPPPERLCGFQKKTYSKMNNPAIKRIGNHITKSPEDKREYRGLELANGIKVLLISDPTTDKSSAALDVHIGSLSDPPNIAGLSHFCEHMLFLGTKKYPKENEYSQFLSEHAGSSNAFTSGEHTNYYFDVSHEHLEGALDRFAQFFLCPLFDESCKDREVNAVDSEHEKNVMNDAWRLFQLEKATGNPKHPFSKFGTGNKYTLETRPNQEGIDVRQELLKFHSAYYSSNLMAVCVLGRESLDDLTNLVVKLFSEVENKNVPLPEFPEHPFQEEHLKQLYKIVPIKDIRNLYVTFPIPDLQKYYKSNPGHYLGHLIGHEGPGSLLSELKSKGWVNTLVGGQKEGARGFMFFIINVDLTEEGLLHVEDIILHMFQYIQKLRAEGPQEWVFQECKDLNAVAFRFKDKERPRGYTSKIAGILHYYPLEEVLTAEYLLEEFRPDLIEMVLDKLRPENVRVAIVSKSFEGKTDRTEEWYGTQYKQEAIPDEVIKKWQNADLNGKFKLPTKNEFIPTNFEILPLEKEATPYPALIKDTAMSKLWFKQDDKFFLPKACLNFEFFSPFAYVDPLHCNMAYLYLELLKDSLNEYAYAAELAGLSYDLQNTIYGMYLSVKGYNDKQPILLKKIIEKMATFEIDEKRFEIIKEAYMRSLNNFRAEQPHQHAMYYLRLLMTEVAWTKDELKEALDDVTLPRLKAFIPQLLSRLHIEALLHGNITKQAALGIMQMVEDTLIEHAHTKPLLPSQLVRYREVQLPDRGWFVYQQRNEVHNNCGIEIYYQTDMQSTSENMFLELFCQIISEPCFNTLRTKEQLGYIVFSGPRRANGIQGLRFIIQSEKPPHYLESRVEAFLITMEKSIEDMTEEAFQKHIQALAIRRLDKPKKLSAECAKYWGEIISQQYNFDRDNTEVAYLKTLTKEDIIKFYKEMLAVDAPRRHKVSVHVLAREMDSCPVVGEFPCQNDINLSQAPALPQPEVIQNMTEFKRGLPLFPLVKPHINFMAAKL

[1] = Counterscreen for IDE inhibitors: Luminescence-based cell-based high throughput dose response assay to identify compounds that are cytotoxic to HEK cells. [Related pubchem assays: 434962 (Primary screen (IDE inhibitors in singlicate)), 449730 (Counterscreen (Cytotoxicity in triplicate)), 435028 (Confirmation (IDE inhibitors in triplicate)) …; conditions: HEK293
[2] = target: DNA dC->dU-editing enzyme APOBEC-3A (Homo sapiens, UniProt P31941); assay: Dose Response confirmation of small molecule APOBEC3A DNA Deaminase Inhibitors via a fluorescence-based single-stranded DNA deaminase assay. [Related pubchem assays (depositor defined):AID493011, AID493024]
[3] = target: DNA dC->dU-editing enzyme APOBEC-3G (Homo sapiens, UniProt Q9HC16);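 also: Dose-response counterscreen measuring inhibition of APOBEC3G DNA deaminase activity, run while confirming APOBEC3A inhibitors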
[4] = target: T2, Neuropeptide Y receptor type 1 (Homo sapiens, UniProt P25929); assay: Fluorescence-based counterscreen for agonists of NPY-Y2: cell-based high-throughput dose response assay for agonists of NPY-Y1.
T2 sequence (P25929 whole entry): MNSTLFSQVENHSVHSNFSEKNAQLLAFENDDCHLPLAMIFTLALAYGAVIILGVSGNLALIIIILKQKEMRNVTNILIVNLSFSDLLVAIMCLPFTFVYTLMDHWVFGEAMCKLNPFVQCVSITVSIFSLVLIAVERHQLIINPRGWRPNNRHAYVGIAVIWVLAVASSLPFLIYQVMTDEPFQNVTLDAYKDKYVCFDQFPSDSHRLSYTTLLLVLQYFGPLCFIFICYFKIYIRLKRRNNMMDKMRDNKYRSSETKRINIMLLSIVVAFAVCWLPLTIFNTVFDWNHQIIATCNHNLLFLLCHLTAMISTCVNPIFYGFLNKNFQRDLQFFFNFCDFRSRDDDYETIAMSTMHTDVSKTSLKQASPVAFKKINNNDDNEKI

[5] = target: T3, Neuropeptide Y receptor type 2 (Homo sapiens, UniProt P49146); assay: Fluorescence-based cell-based high-throughput dose response assay for agonists of NPY-Y2. [Related pubchem assays: 1703 (Screening assay (CNGC inhibitors).), 1359 (Screening assay (NPY-Y2 potentiators or agonists).), 1304 (Screening assay (NPY-Y1 potentiators or agonists).), 1710 (Screening assay (NPY-Y2 agonists).), 1791 (Summary AID.)]
T3 sequence (P49146 whole entry): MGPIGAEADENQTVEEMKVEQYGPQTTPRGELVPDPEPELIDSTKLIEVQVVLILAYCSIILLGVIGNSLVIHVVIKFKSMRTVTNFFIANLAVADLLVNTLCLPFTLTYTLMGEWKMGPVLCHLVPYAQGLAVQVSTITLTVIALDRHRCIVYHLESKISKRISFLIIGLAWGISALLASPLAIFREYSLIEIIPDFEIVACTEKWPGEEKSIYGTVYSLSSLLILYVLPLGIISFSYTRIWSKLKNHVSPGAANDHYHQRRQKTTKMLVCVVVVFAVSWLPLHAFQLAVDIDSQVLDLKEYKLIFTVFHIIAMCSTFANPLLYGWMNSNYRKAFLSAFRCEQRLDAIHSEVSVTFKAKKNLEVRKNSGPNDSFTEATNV

HEK293 = assay: Fluorescence-based counterscreen for potentiators or agonists of NPY-Y2: cell-based high-throughput dose response assay to identify inhibitors of cyclic nucleotide gated ion channel (CNGC) activity. In this assay, the parental HEK293 cell line transfected with a cyclic-nucleotide gated ion channel (CNGC)-based cAMP sensor is used to measure inhibition of isoproterenol-induced CNGC activity by test compound.; conditions: Homo sapiens;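 also: stimulus is 1 µM isoproterenol at EC100 plus PDE inhibitor Ro 20-1724 at 25 µM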
[6] = target: Peroxisome proliferator-activated receptor gamma/Nuclear receptor coactivator 1 (Homo sapiens, UniProt P37231);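 also: agonist potency as compounds enhance coactivator SRC-1 recruitment to PPARgamma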
[7] = target: Peroxisome proliferator-activated receptor gamma/Nuclear receptor coactivator 2 (Homo sapiens, UniProt P37231);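 also: agonist potency for raising coactivator recruitment to the receptor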
[8] = target: Peroxisome proliferator-activated receptor gamma/Nuclear receptor coactivator 3 (Homo sapiens, UniProt P37231);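 also: agonist potency for raising coactivator recruitment to the receptor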

Chain of Peroxisome proliferator-activated receptor gamma/Nuclear receptor coactivator 2 (P37231 whole entry): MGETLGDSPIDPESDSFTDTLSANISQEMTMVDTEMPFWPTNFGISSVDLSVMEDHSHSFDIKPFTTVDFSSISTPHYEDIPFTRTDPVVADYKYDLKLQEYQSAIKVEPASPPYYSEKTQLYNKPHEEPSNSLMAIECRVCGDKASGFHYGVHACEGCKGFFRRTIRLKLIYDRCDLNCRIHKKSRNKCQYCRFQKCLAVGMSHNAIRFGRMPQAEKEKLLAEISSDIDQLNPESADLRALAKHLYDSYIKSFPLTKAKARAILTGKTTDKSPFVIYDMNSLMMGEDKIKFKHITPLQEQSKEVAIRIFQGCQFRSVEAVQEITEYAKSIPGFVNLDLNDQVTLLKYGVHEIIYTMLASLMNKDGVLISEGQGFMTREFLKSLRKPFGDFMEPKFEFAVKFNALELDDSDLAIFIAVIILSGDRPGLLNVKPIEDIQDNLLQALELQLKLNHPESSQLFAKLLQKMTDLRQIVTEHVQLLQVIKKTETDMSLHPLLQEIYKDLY
Chain of Peroxisome proliferator-activated receptor gamma/Nuclear receptor coactivator 2 (Q15596 whole entry, further chain): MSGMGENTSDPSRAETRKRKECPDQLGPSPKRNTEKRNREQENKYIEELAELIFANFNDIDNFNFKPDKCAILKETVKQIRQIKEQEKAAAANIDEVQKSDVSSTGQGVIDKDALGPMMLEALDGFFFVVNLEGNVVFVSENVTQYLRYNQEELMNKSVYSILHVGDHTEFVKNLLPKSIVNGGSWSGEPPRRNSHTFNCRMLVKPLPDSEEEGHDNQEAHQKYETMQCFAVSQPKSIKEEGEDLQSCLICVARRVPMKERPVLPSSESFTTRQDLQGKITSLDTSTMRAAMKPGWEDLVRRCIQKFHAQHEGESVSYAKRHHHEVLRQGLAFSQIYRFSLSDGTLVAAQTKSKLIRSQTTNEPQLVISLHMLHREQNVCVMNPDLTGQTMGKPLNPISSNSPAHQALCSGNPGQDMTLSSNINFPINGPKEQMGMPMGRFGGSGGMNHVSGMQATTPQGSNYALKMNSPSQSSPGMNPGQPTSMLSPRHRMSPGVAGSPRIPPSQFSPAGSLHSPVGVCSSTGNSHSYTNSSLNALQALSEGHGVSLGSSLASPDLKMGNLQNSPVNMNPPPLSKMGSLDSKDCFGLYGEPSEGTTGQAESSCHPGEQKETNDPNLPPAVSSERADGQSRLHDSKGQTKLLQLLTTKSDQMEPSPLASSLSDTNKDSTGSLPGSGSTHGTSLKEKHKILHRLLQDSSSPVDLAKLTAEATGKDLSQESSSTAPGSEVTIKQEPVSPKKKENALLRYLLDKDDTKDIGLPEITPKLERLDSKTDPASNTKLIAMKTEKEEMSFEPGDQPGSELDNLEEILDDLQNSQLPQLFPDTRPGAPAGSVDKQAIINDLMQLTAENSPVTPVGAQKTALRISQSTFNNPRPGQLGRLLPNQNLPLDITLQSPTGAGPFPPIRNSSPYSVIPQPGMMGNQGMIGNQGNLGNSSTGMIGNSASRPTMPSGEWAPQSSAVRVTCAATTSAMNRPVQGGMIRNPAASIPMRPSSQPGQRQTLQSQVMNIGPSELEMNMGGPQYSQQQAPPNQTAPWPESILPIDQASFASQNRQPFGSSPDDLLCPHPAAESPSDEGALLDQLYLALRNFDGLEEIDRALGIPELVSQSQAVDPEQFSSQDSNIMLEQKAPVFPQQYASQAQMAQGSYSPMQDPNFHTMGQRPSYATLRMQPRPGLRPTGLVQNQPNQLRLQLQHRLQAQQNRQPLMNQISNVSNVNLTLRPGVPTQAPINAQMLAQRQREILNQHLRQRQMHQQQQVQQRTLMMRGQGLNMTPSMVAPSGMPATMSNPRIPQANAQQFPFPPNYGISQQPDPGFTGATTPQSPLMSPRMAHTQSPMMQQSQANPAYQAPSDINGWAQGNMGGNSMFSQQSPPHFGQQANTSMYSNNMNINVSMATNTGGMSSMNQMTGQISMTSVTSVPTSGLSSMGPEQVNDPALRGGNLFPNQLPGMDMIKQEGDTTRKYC
Chain of Peroxisome proliferator-activated receptor gamma/Nuclear receptor coactivator 1 (P37231 whole entry): as the sequence (P37231 whole entry) above
Chain of Peroxisome proliferator-activated receptor gamma/Nuclear receptor coactivator 1 (Q15788 whole entry, further chain): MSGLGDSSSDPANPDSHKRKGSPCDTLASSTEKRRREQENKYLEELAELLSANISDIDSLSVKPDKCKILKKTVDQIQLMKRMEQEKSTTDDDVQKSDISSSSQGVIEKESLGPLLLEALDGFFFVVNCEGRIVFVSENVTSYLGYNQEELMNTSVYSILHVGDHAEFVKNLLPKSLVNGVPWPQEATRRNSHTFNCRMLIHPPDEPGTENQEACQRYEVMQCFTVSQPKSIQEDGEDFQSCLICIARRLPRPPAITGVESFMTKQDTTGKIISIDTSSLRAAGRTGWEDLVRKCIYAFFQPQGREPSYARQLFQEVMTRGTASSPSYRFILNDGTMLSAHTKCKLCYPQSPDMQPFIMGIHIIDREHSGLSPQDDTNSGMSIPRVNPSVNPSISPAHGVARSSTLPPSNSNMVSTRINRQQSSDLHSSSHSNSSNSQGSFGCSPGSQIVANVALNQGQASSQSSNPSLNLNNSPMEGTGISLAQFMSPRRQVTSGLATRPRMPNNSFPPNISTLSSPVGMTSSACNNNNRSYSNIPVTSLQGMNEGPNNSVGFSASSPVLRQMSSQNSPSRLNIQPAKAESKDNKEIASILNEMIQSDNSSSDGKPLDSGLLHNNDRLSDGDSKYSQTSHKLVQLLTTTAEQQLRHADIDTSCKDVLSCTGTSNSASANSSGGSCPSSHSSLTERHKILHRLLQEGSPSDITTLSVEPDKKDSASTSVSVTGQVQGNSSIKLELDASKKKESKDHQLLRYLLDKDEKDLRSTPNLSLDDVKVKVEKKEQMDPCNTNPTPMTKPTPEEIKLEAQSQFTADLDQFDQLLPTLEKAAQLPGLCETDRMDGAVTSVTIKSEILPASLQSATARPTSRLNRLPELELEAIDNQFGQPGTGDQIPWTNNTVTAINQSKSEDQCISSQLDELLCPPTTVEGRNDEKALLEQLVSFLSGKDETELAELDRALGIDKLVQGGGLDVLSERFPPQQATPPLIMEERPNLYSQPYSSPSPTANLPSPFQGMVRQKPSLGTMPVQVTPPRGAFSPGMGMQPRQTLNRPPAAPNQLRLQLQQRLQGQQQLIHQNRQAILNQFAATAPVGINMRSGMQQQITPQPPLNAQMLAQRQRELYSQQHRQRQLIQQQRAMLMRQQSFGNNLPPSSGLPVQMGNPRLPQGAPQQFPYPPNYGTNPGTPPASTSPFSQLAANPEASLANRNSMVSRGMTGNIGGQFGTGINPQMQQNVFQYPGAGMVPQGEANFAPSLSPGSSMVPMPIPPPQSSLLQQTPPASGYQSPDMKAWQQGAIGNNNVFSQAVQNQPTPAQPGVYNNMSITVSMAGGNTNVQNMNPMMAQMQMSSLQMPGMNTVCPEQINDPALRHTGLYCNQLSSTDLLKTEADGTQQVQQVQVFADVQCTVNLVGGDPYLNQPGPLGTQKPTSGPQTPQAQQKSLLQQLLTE
Chain of DNA dC->dU-editing enzyme APOBEC-3G (Q9HC16 whole entry): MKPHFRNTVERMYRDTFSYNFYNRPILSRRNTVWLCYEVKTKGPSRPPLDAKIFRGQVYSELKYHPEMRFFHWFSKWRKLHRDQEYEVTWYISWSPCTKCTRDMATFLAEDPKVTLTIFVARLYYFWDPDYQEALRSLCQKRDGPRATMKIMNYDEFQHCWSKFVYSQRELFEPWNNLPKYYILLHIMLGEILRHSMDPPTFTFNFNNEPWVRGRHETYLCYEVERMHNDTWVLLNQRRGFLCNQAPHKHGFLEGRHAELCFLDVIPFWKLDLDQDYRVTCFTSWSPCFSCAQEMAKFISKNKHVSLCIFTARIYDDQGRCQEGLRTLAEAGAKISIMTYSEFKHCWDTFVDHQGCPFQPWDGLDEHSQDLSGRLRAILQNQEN
Chain of DNA dC->dU-editing enzyme APOBEC-3A (P31941 whole entry): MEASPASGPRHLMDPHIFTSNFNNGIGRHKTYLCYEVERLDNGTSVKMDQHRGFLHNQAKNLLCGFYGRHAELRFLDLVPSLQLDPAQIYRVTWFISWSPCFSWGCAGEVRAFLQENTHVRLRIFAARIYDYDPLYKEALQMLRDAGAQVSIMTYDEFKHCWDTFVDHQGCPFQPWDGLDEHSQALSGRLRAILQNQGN

Compound: CC(C)(C)C(=O)N1CCN(c2ccnc3cc(Cl)ccc23)CC1
IC50 (Insulin-degrading enzyme): 18.6 µM (not active)
IC50 [1]: 20.8 µM (not active)

Compound: CC[n+]1c(/C=C2/C=CN(CCCS(=O)(=O)[O-])c3ccccc32)sc2ccccc21
IC50 (Insulin-degrading enzyme): 12.3 µM (not active)
IC50 [2]: 2.69 µM (active)
IC50 [3]: 2.97 µM (active)
IC50 [1]: > 55.7 µM (not active)

Compound: COC(=O)c1ccc(NC(=O)CSc2nnc(C(C)NC(=O)c3ccccc3Cl)n2C)cc1 (configuration not stated)
EC50 [4]: 26.4 µM (not active)
EC50 [5]: 19.8 µM (not active)
EC50 (HEK293): 12.7 µM (not active)

EC50 [6]: > 79.4 µM (not active)
EC50 [7]: > 79.4 µM (not active)
EC50 [8]: > 79.4 µM (not active)
Compound: Cc1cc(C)c(S(=O)(=O)Nc2ccc3[nH]c(O)nc3c2)c(C)c1
